Earlier results as cited in patent US12496345B2, “Method of treating cancer” (Intensity Therapeutics, Inc., priority 2012, dated 2025).

Columns and labels:
[1] = not given; remark: listed apart in the source
[2] = not given; remark: listed apart in the source

In the case of `O=c1[nH]cc(F)c(=O)[nH]1` [5-FU, fluorouracil], the oral absorption (in vivo, po) is given as “not orally absorbed”.

For `N.N.O=C([O-])C1(C(=O)[O-])CCC1.[Pt+2]` [Carboplatin, platinum, diammine [1,1-cyclobutane-dicarboxylato (2−)-0,0′]-(SP-4-2)], the soluble in water [1] is given as “approximately 14 mg/mL”, the oral bioavailability (carboplatin alone, highly variable) is given as “approximately 4%” and the “pH of a 1% solution” value [2] is given as 5-7.
